{
  "source": "patent US11969433B2",
  "about": "“Compositions and methods for muscle regeneration using prostaglandin E2” (The Board of Trustees of the Leland Stanford Junior …, priority 2016, dated 2024)",
  "key": {"[1]": {"tested_on": "MuSCs", "test": "Quantitative RT-PCR of MuSC transcripts", "type": "cell-based, mouse", "description": "We isolated RNA from MuSCs using the RNeasy Micro Kit (Qiagen). For muscle samples, we snap froze the tissue in liquid nitrogen, homogenized the tissues using a mortar and pestle, followed by syringe and needle trituration, and then isolated RNA using Trizol (Invitrogen). We reverse-transcribed cDNA from total mRNA from each sample using the SensiFAST™ cDNA Synthesis Kit (Bioline). We subjected cDNA to RT-PCR using SYBR Green PCR Master Mix (Applied Biosystems) or TaqMan Assays (Applied Biosystems) in an ABI 7900HT Real-Time PCR System (Applied Biosystems). We cycled samples at 95° C. for 10 min and then 40 cycles at 95° C. for 15 s and 60° C. for 1 min. To quantify relative transcript levels, we used 2-ΔΔCt to compare treated and untreated samples and expressed the results relative to Gapdh. For SYBR Green qRT-PCR, we used the following primer sequences: Gapdh. forward 5′-[…]-3′ (SEQ ID NO: 1), reverse 5′-CCCTTTTGGCTCCACCCT-3′ (SEQ ID NO: 2); Hpgd, forward 5′-[…]-3′ (SEQ ID NO: 3), reverse 5′-[…]-3′ (SEQ ID NO: 4); Ptges, forward 5′-GCTGTCATCACAGGCCAGA-3′ (SEQ ID NO: 5), reverse 5′-[…]-3′ (SEQ ID NO: 6); Ptges2, forward 5′-[…]-3′ (SEQ ID NO: 7), reverse 5′-[…]-3′ (SEQ ID NO: 8); Ptger1, forward 5′ GTGGTGTCGTGCATCTGCT-3′ (SEQ ID NO: 9), reverse, 5′ […]-3′ (SEQ ID NO: 10), and Ptger2, forward 5′-[…]-3′ (SEQ ID NO: 11), reverse 5′-[…]-3′ (SEQ ID NO: 12). TaqMan Assays (Applied Biosystems) were used to quantify Pax7. Myogenin. Slco2a1 (PGT), Ptger3 and Ptger4 in samples according to the manufacturer instructions with the TaqMan Universal PCR Master Mix reagent kit (Applied Biosystems). Transcript levels were expressed relative to Gapdh levels. For SYBR Green qPCR, Gapdh qPCR was used to normalize input cDNA samples. For Taqman qPCR, multiplex qPCR enabled target signals (FAM) to be normalized individually by their internal Gapdh signals (VIC)."}, "[2]": {"tested_on": "MuSCs", "test": "MuSC transplantation into injured TA muscle, engraftment by bioluminescence imaging", "type": "in vivo, mouse", "conditions": "cultured MuSCs, acute 1-day PGE2, 250 cells transplanted day 7 into NOD-SCID mice"}, "[3]": {"tested_on": "aged MuSCs", "test": "Aged MuSC numbers after acute 24 hr treatment, hydrogel culture", "type": "cell-based, mouse", "conditions": "1-day pulse; PGE2 10 ng/ml or SW033291 1 μM; assayed day 7", "method": "Following isolation, we resuspended MuSCs in myogenic cell culture medium containing DMEM/F10 (50:50), 15% FBS, 2.5 ng ml^−1 fibroblast growth factor-2 (FGF-2 also known as bFGF) and 1% penicillin-streptomycin. We seeded MuSC suspensions at a density of 500 cells per cm^2 surface area. We maintained cell cultures at 37° C. in 5% CO2 and changed medium daily. […]\nTo assay proliferation, we used three different assays (hemocytometer, VisionBlue, and EdU). […] For hemocytometer cell number count, we collected cells at indicated timepoints by incubation with 0.5% trypsin in PBS for 5 min at 37° C. and quantified them using a hemocytometer at least 3 times. Additionally, we used the VisionBlue Quick Cell Viability Fluorometric Assay Kit (BioVision, catalog #K303) as a readout for cell growth in culture. Briefly, we incubated MuSCs with 10% VisionBlue in culture medium for 3 h, and measured fluorescence intensity on a fluorescence plate reader (Infinite M1000 PRO, Tecan) at Ex=530-570 nm, Em=590-620 nm. […] We quantified EdU positive cells using the MetaMorph Image Analysis software (Molecular Devices). Data analyses were blinded, where researchers performing cell scoring were unaware of the treatment condition given to sample groups analyzed."}},
  "data": [
    {"smiles": "CCCCC[C@H](O)/C=C/[C@H]1[C@H](O)CC(=O)[C@@H]1C/C=C\\CCCC(=O)O", "note": "[PGE2, prostaglandin E2]", "values": [
      {"measurement": "transcript levels of Ptger1 and Ptger4", "setting": "[1]; after 24 hr PGE2 treatment of MuSCs", "result": "upregulated"},
      {"measurement": "Pax7 expression in aged MuSCs", "setting": "[1]; aged MuSCs, 1-day pulse", "result": "maintenance"},
      {"measurement": "young MuSC regenerative capacity assessed by BLI", "setting": "[2]", "result": "enhanced by an order of magnitude"},
      {"measurement": "proliferation of aged MuSCs", "setting": "[3]", "result": "increase"}
    ]}
  ]
}
